Publication PMC6983056, “Carbazole Alkaloids from Clausena anisum-olens: Isolation, Characterization, and Anti-HIV Evaluation” (Molecules, 2019)
In brackets after ≈: the same amount, converted by molar mass.

Tests used:
HIV-1 = system: HIV-1; design: method as in PMID 16177980; details: cited from earlier work
[1] = system: HIV replication in H9 lymphocytes; design: method as in PMID 31109016, PMID 10021911; details: cited from earlier work
[2] = system: human immunodeficiency virus type-1 integrase; details: cited from earlier work
[3] = CytoTox-Glo cytotoxicity assay against MT4 cells; assay type: cell-based; details: human, 50% cytotoxic concentration, MT-4 cells, read-out: CC50 (μg/mL) MT4
Method: The cytotoxicity of the compound against MT4 cells was assessed using a CytoTox-Glo cytotoxicity assay (Promega, Madison, WI, USA). MT-4 cells were cultured in the presence of various concentrations of each test compound for 3 days, and the 50% cytotoxic concentration (CC50) causing a 50% reduction of cell viability was determined by following the manufacturer’s protocol.

[4] = system: HIV-1NL4-3 Nanoluc-sec virus; experiment: microbe, parasite or virus in culture; assay type: cell-based; details: for EC50: Human immunodeficiency virus 1, NL43, MT4, 72 h, read-out: EC50 (μg/mL) NL4-3; for selective anti-HIV activity (class symbol printed in EC50 column): CC50/EC50 criterion
Text: MT4 cells (1 × 10^5 cells mL^−1) in 96 well plates were infected by HIV-1 NL4-3 Nanoluc-sec at a dose of 50 TCID50/well in the presence of each test compound at various concentrations. On Day 3 post-infection, supernatants were collected and assayed for luciferase activity using the Nano-Glo Luciferase Assay System (Promega, Madison, WI, USA). The antiviral potency was defined as the compound concentration that reduces the luciferase activity by 50% (EC50).

[5] = system: HIV replication in C8166 cells; design: method as in PMID 15771893; details: in vitro; cited from earlier work
HIV [6] = system: HIV; design: method as in PMID 10757740; details: XTT-tetrazolium assay; cited from earlier work
HIV [7] = details: cited from earlier work

Compound: COc1ccc2c(c1)[nH]c1cc(OC)c(C=O)cc12 [3-formyl-2,7-dimethoxycarbazole]
- anti-HIV-1 effects EC50 (HIV-1): 7.4 µg/mL
- potential therapeutic index (PTI) (HIV-1): 8.0

Compound: COc1cc2c(c3cnccc13)c1ccccc1n2C [5-methoxy-7-methyl-7H-pyrido[4,3-c]carbazole]
- therapeutic index (TI) ([1]; H9 lymphocytes): 503
- EC50, inhibition of HIV replication in H9 lymphocytes [1]: 0.0054 µg/mL

Compound: Cc1cc2c(c3c1[nH]c1cc(Cl)c(O)cc13)C(=O)N(CCN(C)C)C2=O [8-Chloro-2-[2-(dimethylamino)ethyl]-9-hydroxy-5-methylpyrrolo[3,4-c]carbazole-1,3(2H,6H)-dione]
- strand-transfer inhibitory activity [2]: potent strand-transfer inhibitory activity

Compound: Cc1cn([C@H]2C[C@H](N=[N+]=[N-])[C@@H](CO)O2)c(=O)[nH]c1=O [AZT, azidothymidine]
- CC50 at 3 days [3]: > 0.1 µg/mL
- EC50 [4]: 0.0055 ± 0.0018 µg/mL (≈ 0.0206 µM)

Compound: COC(=O)c1cc2c(cc1C)[nH]c1ccccc12 [Compound 1, 2-methyl-9H-carbazole-3-methyl carboxylate]
- CC50 at 3 days [3]: 17 ± 2.5 µg/mL (≈ 71 µM)
- TI (CC50/EC50; SI in text) ([4]; CC50 MT4 / EC50 NL4-3): 7.1
- EC50 [4]: 2.4 ± 0.53 µg/mL (≈ 10 µM)

Compound: COc1ccc(OC)c2c1[nH]c1cc(O)c(C)cc12 [Compound 2, 5,8-dimethoxy-3-methyl-9H-carbazol-2-ol]
- CC50 at 3 days [3]: 15.2 ± 3.1 µg/mL (≈ 59.1 µM)
- EC50 [4]: 3.7 µg/mL (≈ 14.4 µM)

Compound: COc1ccc2c(c1)[nH]c1ccc(C(=O)O)cc12 [Compound 3, clausine N]
- selective anti-HIV activity (class symbol printed in EC50 column) [4]: *- ^d (no selective anti-HIV activity (CC50/EC50 < 5))

Compound: CC1(C)C=Cc2c(c(C=O)cc3c2[nH]c2c(O)cccc23)O1 [Compound 4, heptazolicine]
- selective anti-HIV activity (class symbol printed in EC50 column) [4]: *- ^d (no selective anti-HIV activity (CC50/EC50 < 5))

Compound: CC1(C)C=Cc2c(ccc3c2[nH]c2cc(O)c(C=O)cc23)O1 [Compound 5, clauszoline B]
- selective anti-HIV activity (class symbol printed in EC50 column) [4]: *- ^d (no selective anti-HIV activity (CC50/EC50 < 5))

Compound: O=Cc1ccc2[nH]c3cc(O)ccc3c2c1 [Compound 7, 7-dihydroxy-9H-carbazole-3-carboxaldehyde]
- CC50 at 3 days [3]: > 25 µg/mL
- EC50 [4]: > 25 µg/mL

Compound: COc1ccc2[nH]c3c(O)cc(C=O)cc3c2c1 [Compound 8, clausine I]
- selective anti-HIV activity (class symbol printed in EC50 column) [4]: *- ^d (no selective anti-HIV activity (CC50/EC50 < 5))

Compound: COc1cc2[nH]c3ccccc3c2cc1C=O [O-methylmukonal]
- anti-HIV-1 effects EC50 (HIV-1): 2.7 µg/mL
- potential therapeutic index (PTI) (HIV-1): 56.7

Compound: COc1ccc2c(c1)[nH]c1cc(OC)c(C(=O)O)cc12 [clauszoline-J]
- anti-HIV-1 effects EC50 (HIV-1): 8.2 µg/mL
- potential therapeutic index (PTI) (HIV-1): 1.6

Compound: COc1ccc2[nH]c3cc(O)c(C)cc3c2c1CC=C(C)C [glybomine B]
- IC50, inhibition of HIV replication in C8166 cells [5]: 9.73 µg/mL

Compound: Cc1cc2c(cc1O)[nH]c1ccc3c(c12)C=CC(C)(C)O3 [glycoborinine]
- IC50, inhibition of HIV replication in C8166 cells [5]: 4.47 µg/mL

Compound: CC(C)=CCc1cc2c(cc1O)[nH]c1ccc(C)cc12 [siamenol]
- HIV-inhibitory activity EC50 (HIV [6]): 2.6 µg/mL
- maximum protection (HIV [6]): 50–60%

Compound: C[C@@]1(C(=O)O)[C@@H](O)CC[C@]2(C)c3cc4c(cc3CC[C@@H]12)[nH]c1ccccc14 [xiamycin]
- anti-HIV activity (HIV [7]): selective anti-HIV activity

Compound: clausine-O [Compound 6]
- selective anti-HIV activity (class symbol printed in EC50 column) [4]: *- ^d (no selective anti-HIV activity (CC50/EC50 < 5))
